Assay results taken from ChEMBL document CHEMBL4270560, “Novel curcumin analogue hybrids: Synthesis and anticancer activity” (Eur J Med Chem, 2018).

How the values were obtained:
[1] = system: SGC-7901; assay: Cell cycle arrest in human SGC7901 cells assessed as accumulation at S phase at 1000 nM after 48 hrs by propidium iodide staining based flow cytometric analysis (reference value: 33.30%); assay type: functional
[2] = system: SGC-7901; assay: Induction of apoptosis in human SGC7901 cells assessed as late apoptotic cells at 1000 nM after 48 hrs in presence of NAC by Annexin V-FITC/propidium iodide staining based flow cytometric analysis (reference value: 2.85%); assay type: functional
[3] = system: SGC-7901; assay: Cell cycle arrest in human SGC7901 cells assessed as accumulation at S phase at 600 nM after 48 hrs by propidium iodide staining based flow cytometric analysis (reference value: 33.30%); assay type: functional
[4] = system: SGC-7901; assay: Cell cycle arrest in human SGC7901 cells assessed as accumulation at G2 phase at 1000 nM after 48 hrs by propidium iodide staining based flow cytometric analysis (reference value: 18.77%); assay type: functional
[5] = system: SGC-7901; assay: Induction of apoptosis in human SGC7901 cells assessed as decrease in cyclin D1 level after 48 hrs by Western blot analysis; assay type: functional, cell-based
[6] = system: SGC-7901; assay: Induction of apoptosis in human SGC7901 cells assessed as necrotic cells at 1000 nM after 48 hrs by Annexin V-FITC/propidium iodide staining based flow cytometric analysis (reference value: 0.052 to 0.304%); assay type: functional

COc1cc(OC)c2c(=O)c(OCCCOc3ccccc3/C=C/C(=O)/C=C/c3ccccn3)c(-c3cc(OC)c(OC)c(OC)c3)oc2c1
Activity [1]: 33.28% | Activity [2]: 2.84% | Activity [3]: 35.47% | Activity [4]: 10.44% | Activity [5]: Dose-dependent effect | Activity [6]: 0.256 - 1.04%
